Assay results reported in BigSolDB 2.1.

NC(=O)c1ccc([N+](=O)[O-])cc1
solubility (mole fraction)
Conditions	283.15 K	288.15 K	293.15 K	298.15 K	303.15 K	308.15 K	313.15 K	318.15 K	323.15 K	328.15 K
in DMF	0.037	0.0416	0.0492	0.0576	0.0691	0.0811	0.0945	0.109	0.123	0.139
in DMSO	–	–	0.0372	0.0425	0.0504	0.0613	0.0747	0.0888	0.103	0.117
in NMP	0.0418	0.0472	0.0549	0.0653	0.0775	0.0917	0.108	0.125	0.144	0.169
in acetonitrile	0.000628	0.000806	0.000994	0.00126	0.00155	0.00195	0.00232	0.0028	0.00332	0.00396
in ethanol	0.00157	0.00182	0.00231	0.00287	0.00351	0.00429	0.00513	0.00616	0.00735	0.00882
in ethyl acetate	0.00203	0.00236	0.00286	0.00376	0.00471	0.00583	0.00706	0.0086	0.0103	0.0122
in ethylene glycol	0.00356	0.00417	0.00496	0.006	0.00719	0.00873	0.0102	0.0119	0.0138	0.0164
in isobutanol	0.000751	0.000942	0.00119	0.0015	0.00187	0.00233	0.00286	0.00342	0.00403	0.00467
in isopropanol	0.00127	0.0015	0.00185	0.0023	0.00286	0.00341	0.00408	0.00492	0.00579	0.00677
in n-butanol	0.000449	0.000554	0.000712	0.000907	0.00116	0.00144	0.00176	0.00213	0.00253	0.00301
in n-propanol	0.00096	0.00119	0.00151	0.00189	0.00228	0.00276	0.00327	0.00381	0.00447	0.00533
in water	0.000322	0.000395	0.000498	0.0006	0.000754	0.000924	0.00112	0.00137	0.00161	0.00186
